Measured values reported in patent publication US11000033B2, “Ketone or oxime compound, and herbicide” (NISSAN CHEMICAL CORPORATION, priority 2014, dated 2021).

How the values were obtained:
Assay type in all cases: in vivo
[1] = tested on: Echinochloa oryzacola Vasing.; experiment: Test Example 2: herbicidal activity, application during weed generation in submerged conditions (symbol A); conditions: Table 23; application herbicide amount 320 g/ha; grade 0-5 by criteria of Test Example 1
How it was run: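 Weeds emerging under flooded conditions were treated with compound formulated as an emulsion and diluted with water to the intended herbicide amount, poured onto the surface of 4 cm standing water. Seeds had been co-sown in alluvial soil; plants grew at 25° C. to 30° C. and were assessed after 3 weeks.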

[2] = tested on: Echinochloa crus-galli var. crus-galli; experiment: Test Example 3: herbicidal effect by foliage application, Wagner pot (symbol H); conditions: application herbicide amount 320 g/ha
How it was run: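 Alluvial soil was flooded to a depth of 0.1–0.5 cm, seeded with the weeds and rice, and kept in a greenhouse at 25–30 °C. After 14 days of growth, the foliage received a small-sprayer application of emulsion diluted to the intended rate; injury was rated at 3 weeks.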

[3] = tested on: directly sowed rice plant; experiment: Test Example 3: effect on crop by foliage application, Wagner pot (symbol b); conditions: application herbicide amount 320 g/ha
How it was run: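 Alluvial soil in a 1/10000-are Wagner pot was flooded to a water depth of 0.1–0.5 cm. Echinochloa crus-galli var. crus-galli, Leptochloa chinensis, Cyperus difformis and rice were sown into it and grown in a greenhouse at 25–30 °C.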

Setaria viridis = experiment: Test Example 4: herbicidal effect by soil treatment (symbol G); conditions: application herbicide amount 320 g/ha
How it was run: (§1)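 Seeds were sown in sterilized diluvial soil, covered with about 1.5 cm of soil, and the soil surface was sprayed with a water-diluted emulsion of the compound at a predetermined rate. Plants grew in a greenhouse at 25° C. to 30° C.; effects were scored visually 3 weeks after application.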

Lolium multiflorum Lam. = experiment: Test Example 4: herbicidal effect by soil treatment (symbol K); conditions: application herbicide amount 320 g/ha
How it was run: as §1

corn = experiment: Test Example 4: effect on crop by soil treatment (symbol c); conditions: application herbicide amount 320 g/ha
How it was run: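 Seeds were sown in spots on sterilized diluvial soil in a plastic box and covered with about 1.5 cm of soil. Plants were then grown in a greenhouse at 25° C. to 30° C.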

soybean = experiment: Test Example 4: effect on crop by soil treatment (symbol d); conditions: application herbicide amount 320 g/ha
How it was run: (§2)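 The test used sterilized diluvial soil. Seed was set down in spots and overlaid with about 1.5 cm of soil before growth in a greenhouse kept at 25° C. to 30° C.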

rapeseed = experiment: Test Example 4: effect on crop by soil treatment (symbol g); conditions: application herbicide amount 320 g/ha
How it was run: as §2

Avena fatua = experiment: Test Example 5: herbicidal effect by foliage application, plastic box (symbol I); conditions: 320 g/ha, 3 weeks after application
How it was run: (§3)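 Seeds were sown in sterilized diluvial soil, covered with about 1.5 cm of soil and grown 14 days in a greenhouse at 25° C. to 30° C. An emulsifiable formulation diluted in water to a set rate was sprayed over foliage, and injury was scored 3 weeks later.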

Stellaria media = experiment: Test Example 5: herbicidal effect by foliage application, plastic box (symbol P); conditions: 320 g/ha, 3 weeks after application
How it was run: as §3

wheat = experiment: Test Example 5: effect on crop by foliage application, plastic box (symbol e); conditions: 320 g/ha, 3 weeks after application
How it was run: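 Crop seed is sown alongside grass and broadleaf weed species in spots in sterilized diluvial soil, then covered to a depth of about 1.5 cm. Plants grow in a greenhouse kept at 25° C. to 30° C.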

SMILES | Herbicidal effect grade, A: Echinochloa oryzacola Vasing. [1] | herbicidal effect on H (Echinochloa crus-galli var. crus-galli), grade 0-5 [2] | effect on crop b (directly sowed rice plant), grade 0-5 [3] | G: Setaria viridis, herbicidal effect grade (Setaria viridis) | K: Lolium multiflorum Lam., herbicidal effect grade (Lolium multiflorum Lam.) | c: corn, effect on crop grade (corn) | d: soybean, effect on crop grade (soybean) | g: rapeseed, effect on crop grade (rapeseed) | I: Avena fatua, herbicidal effect grade (Avena fatua) | P: Stellaria media, herbicidal effect grade (Stellaria media) | e: wheat, effect on crop grade (wheat)
C=CC(=O)CC1CC(O)=C(c2c(C)cc(C)cc2C)C1=O (stereo not drawn) [2-031] | 4 (Herbicidal ratio of 70% or higher and lower than 90%) | 5 (Herbicidal ratio of 90% or more (almost completely withered)) | 5 (Herbicidal ratio of 90% or more (almost completely withered)) | 5 (Herbicidal ratio of 90% or more (almost completely withered)) | 5 (Herbicidal ratio of 90% or more (almost completely withered)) | 5 (Herbicidal ratio of 90% or more (almost completely withered)) | 0 (Herbicidal ratio of 5% or lower (almost no effect)) | 3 (Herbicidal ratio of 40% or higher and lower than 70%) | 5 (Herbicidal ratio of 90% or more (almost completely withered)) | 0 (Herbicidal ratio of 5% or lower (almost no effect)) | 0 (Herbicidal ratio of 5% or lower (almost no effect))
Cc1cc(C)c(C2=C(O)CC(CC(=O)c3ccc(F)cc3)C2=O)c(C)c1 (stereo not drawn) [2-032] | 4 (Herbicidal ratio of 70% or higher and lower than 90%) | 5 (Herbicidal ratio of 90% or more (almost completely withered)) | 5 (Herbicidal ratio of 90% or more (almost completely withered)) | 5 (Herbicidal ratio of 90% or more (almost completely withered)) | 5 (Herbicidal ratio of 90% or more (almost completely withered)) | 1 (Herbicidal ratio of 5% or higher and lower than 20%) | 0 (Herbicidal ratio of 5% or lower (almost no effect)) | 1 (Herbicidal ratio of 5% or higher and lower than 20%) | 3 (Herbicidal ratio of 40% or higher and lower than 70%) | 0 (Herbicidal ratio of 5% or lower (almost no effect)) | 1 (Herbicidal ratio of 5% or higher and lower than 20%)
CCC(=O)CCC1CC(O)=C(c2c(C)cc(C)cc2C)C1=O (stereo not drawn) [5-001] | 0 (Herbicidal ratio of 5% or lower (almost no effect)) | 2 (Herbicidal ratio of 20% or higher and lower than 40%) | 5 (Herbicidal ratio of 90% or more (almost completely withered)) | 0 (Herbicidal ratio of 5% or lower (almost no effect)) | 5 (Herbicidal ratio of 90% or more (almost completely withered)) | 0 (Herbicidal ratio of 5% or lower (almost no effect)) | 0 (Herbicidal ratio of 5% or lower (almost no effect)) | 0 (Herbicidal ratio of 5% or lower (almost no effect)) | 4 (Herbicidal ratio of 70% or higher and lower than 90%) | 0 (Herbicidal ratio of 5% or lower (almost no effect)) | 0 (Herbicidal ratio of 5% or lower (almost no effect))
CON=C(C)CC1CC(O)=C(c2c(C)cc(Br)cc2C)C1=O (stereo not drawn) [6-003] | 4 (Herbicidal ratio of 70% or higher and lower than 90%) | 5 (Herbicidal ratio of 90% or more (almost completely withered)) | 5 (Herbicidal ratio of 90% or more (almost completely withered)) | 5 (Herbicidal ratio of 90% or more (almost completely withered)) | 5 (Herbicidal ratio of 90% or more (almost completely withered)) | 4 (Herbicidal ratio of 70% or higher and lower than 90%) | 0 (Herbicidal ratio of 5% or lower (almost no effect)) | 4 (Herbicidal ratio of 70% or higher and lower than 90%) | 5 (Herbicidal ratio of 90% or more (almost completely withered)) | 2 (Herbicidal ratio of 20% or higher and lower than 40%) | 0 (Herbicidal ratio of 5% or lower (almost no effect))
CON=C(C)CC1CC(O)=C(c2c(C)cc(-c3ccccc3)cc2C)C1=O (stereo not drawn) [6-015] | 5 (Herbicidal ratio of 90% or more (almost completely withered)) | 5 (Herbicidal ratio of 90% or more (almost completely withered)) | 5 (Herbicidal ratio of 90% or more (almost completely withered)) | 5 (Herbicidal ratio of 90% or more (almost completely withered)) | 5 (Herbicidal ratio of 90% or more (almost completely withered)) | 5 (Herbicidal ratio of 90% or more (almost completely withered)) | 0 (Herbicidal ratio of 5% or lower (almost no effect)) | 4 (Herbicidal ratio of 70% or higher and lower than 90%) | 4 (Herbicidal ratio of 70% or higher and lower than 90%) | 3 (Herbicidal ratio of 40% or higher and lower than 70%) | 0 (Herbicidal ratio of 5% or lower (almost no effect))
CON=C(C)CC1CC(O)=C(c2c(C)cc(C)cc2OC)C1=O (stereo not drawn) [6-037, 3-hydroxy-2-(2-methoxy-4,6-dimethylphenyl)-5-{2-(methoxyimino)propyl}cyclopent-2-enone] | 5 (Herbicidal ratio of 90% or more (almost completely withered)) | 5 (Herbicidal ratio of 90% or more (almost completely withered)) | 5 (Herbicidal ratio of 90% or more (almost completely withered)) | 5 (Herbicidal ratio of 90% or more (almost completely withered)) | 5 (Herbicidal ratio of 90% or more (almost completely withered)) | 5 (Herbicidal ratio of 90% or more (almost completely withered)) | 2 (Herbicidal ratio of 20% or higher and lower than 40%) | 3 (Herbicidal ratio of 40% or higher and lower than 70%) | 5 (Herbicidal ratio of 90% or more (almost completely withered)) | 4 (Herbicidal ratio of 70% or higher and lower than 90%) | 5 (Herbicidal ratio of 90% or more (almost completely withered))
